Test results from BindingDB's records for doi:10.1124/jpet.105.085829 (Duquesne University, 2005).
Several values for one entry are separate records, joined by “and”; a condition that tells them apart may be missing. Equal values may be shown once.

target: Sodium-dependent dopamine transporter (Rattus norvegicus, UniProt P23977)
Sequence (P23977 whole entry): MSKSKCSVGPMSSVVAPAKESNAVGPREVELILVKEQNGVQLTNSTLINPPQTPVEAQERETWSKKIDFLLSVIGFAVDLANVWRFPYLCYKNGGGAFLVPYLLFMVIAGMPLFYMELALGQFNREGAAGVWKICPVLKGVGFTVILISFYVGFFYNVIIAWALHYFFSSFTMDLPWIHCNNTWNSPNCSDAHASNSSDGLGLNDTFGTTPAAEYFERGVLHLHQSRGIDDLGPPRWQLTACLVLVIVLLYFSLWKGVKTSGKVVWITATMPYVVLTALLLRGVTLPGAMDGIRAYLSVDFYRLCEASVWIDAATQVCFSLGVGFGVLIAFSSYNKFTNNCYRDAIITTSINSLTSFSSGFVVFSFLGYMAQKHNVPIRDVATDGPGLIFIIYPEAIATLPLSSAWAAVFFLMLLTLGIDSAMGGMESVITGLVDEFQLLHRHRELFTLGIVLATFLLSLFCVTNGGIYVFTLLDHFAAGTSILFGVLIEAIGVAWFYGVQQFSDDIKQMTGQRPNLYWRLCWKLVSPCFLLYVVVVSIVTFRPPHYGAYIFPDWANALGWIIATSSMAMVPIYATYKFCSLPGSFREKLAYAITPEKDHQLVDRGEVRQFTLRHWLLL

SMILES	Ki
COC(=O)[C@@H]1CN(C)CC[C@@H]1c1ccc(Cl)cc1 [4-ARA-127]	1630 nM and 3300 nM
CN1C2CCC1CC(OC(c1ccccc1)c1ccc(C(F)(F)F)cc1)C2 (stereo unspecified) [8-Methyl-3-[phenyl-(4-trifluoromethyl-phenyl)-methoxy]-8-aza-bicyclo[3.2.1]octane]	1280 nM and 541 nM
COC(=O)C1C2CCC(C[C@@H]1OC(=O)c1ccccc1)O2 (stereo partly specified) [8-Oxa-norcocaine]	9780 nM and 1560 nM
CC1CN(CCCn2c3ccccc3c3ccccc32)CC(C)N1 (stereo unspecified) [9-[3-(3,5-dimethylpiperazin-1-yl)propyl]-9H-carbazole]	643 nM and 180 nM
O[C@]1(c2ccc(Cl)cc2)c2ccccc2C2=NCCN21 [Mazanor]	31 nM and 13 nM
O=CN1C2CCC1CC(OC(c1ccc(F)cc1)c1ccc(F)cc1)C2 (stereo unspecified) [N-CHO-4,4'-diFBZT]	> 10000 nM
